The source of these data is EP3034610A1, “NOVEL TERPENOID COMPOUND AND METHOD FOR PRODUCING SAME” (The Kitasato Institute, priority 2013, dated 2015).

Common to all, as to format: cell-based
What all share (conditions): 72 h treatment, OD 540 nm, tested 5-100 µg/mL

For one assay, the system named is SKOV (ovarian cancer). Kind of assay: Cytotoxicity, MTT assay (viability), SKOV.
The subject of a further assay is Mycobacterium smegmatis. Put plainly: Cytotoxicity, MTT assay (viability), Mycobacterium smegmatis.
Assay [1] concerns Jurkat (T-cell lymphoblastic leukemia). Put plainly: Cytotoxicity, MTT assay (viability), Jurkat.

In the case of `C=C(CCC=C(C)C)[C@@H]1CC[C@@]2(C)CCCC(C)=C2C1` [clavulatriene A], the IC50 entry in the assay on SKOV (ovarian cancer) was “not active”; with Mycobacterium smegmatis it was “not active”; in assay [1], “IC50 = 5.63 µg/ml”.
In the case of trimethyl-methylenehexadecahydropyrene, the values for the IC50 result (in the assay with SKOV (ovarian cancer); in the assay with Mycobacterium smegmatis; in assay [1]) were “not active”, “IC50 = 50.08 µg/ml” and “not active”, respectively.
tetramethylhexadecahydropyrenol: the IC50 result is “IC50 = 35.38 µ g/ml” in the assay on SKOV (ovarian cancer), “IC50 = 49.78 µg/ml” in the assay with Mycobacterium smegmatis and “IC50 = 29. 35 µ g/ml µg/ml” in assay [1].
